Source: the NIST ThermoML archive (doi:10.1021/je030236t)
Numbers after ± are expanded uncertainties.

Tests used:
[1] = Molar enthalpy of transition or fusion; conditions: Crystal; DSC
[2] = Liquid
[3] = molar enthalpy of vaporization or sublimation; conditions: 298.15 K; Liquid

Structure (SMILES) | vapor or sublimation pressure ([2]; 298.15 K) [kPa] | vapor or sublimation pressure ([2]; 310 K) [kPa] | vapor or sublimation pressure ([2]; 320 K) [kPa] | vapor or sublimation pressure ([2]; 330 K) [kPa] | vapor or sublimation pressure ([2]; 340 K) [kPa] | vapor or sublimation pressure ([2]; 350 K) [kPa] | vapor or sublimation pressure ([2]; 360 K) [kPa] | vapor or sublimation pressure ([2]; 370 K) [kPa] | vapor or sublimation pressure ([2]; 380 K) [kPa] | vapor or sublimation pressure ([2]; 390 K) [kPa] | vapor or sublimation pressure ([2]; 400 K) [kPa] | vapor or sublimation pressure ([2]; 410 K) [kPa] | vapor or sublimation pressure ([2]; 420 K) [kPa] | vapor or sublimation pressure ([2]; 430 K) [kPa] | vapor or sublimation pressure ([2]; 440 K) [kPa] | vapor or sublimation pressure ([2]; 450 K) [kPa] | vapor or sublimation pressure ([2]; 460 K) [kPa] | vapor or sublimation pressure ([2]; 470 K) [kPa] | vapor or sublimation pressure ([2]; 480 K) [kPa] | vapor or sublimation pressure ([2]; 490 K) [kPa] | further results
c1ccc(-c2cc(-c3ccccc3)cc(-c3ccccc3)c2)cc1 [1,3,5-triphenylbenzene] | – | – | – | – | – | – | – | – | – | – | – | – | – | – | – | – | – | – | – | – | Molar enthalpy of transition or fusion [1]: 7.43 ± 0.215 kcal/mol
CCCCCCCCCCCCCCCCCCCCCCCCCCCCCCCC [dotriacontane] | 3.62e-12 ± 7.3e-13 | 4.33e-11 ± 8.7e-12 | 2.95e-10 ± 5.9e-11 | 1.74e-09 ± 3.5e-10 | 8.99e-09 ± 1.8e-09 | 4.12e-08 ± 8.2e-09 | 1.69e-07 ± 3.4e-08 | 6.31e-07 ± 1.3e-07 | 2.14e-06 ± 4.3e-07 | 6.71e-06 ± 1.3e-06 | 1.95e-05 ± 3.9e-06 | 5.27e-05 ± 1e-05 | 0.000134 ± 2.7e-05 | 0.000321 ± 6.4e-05 | 0.000729 ± 0.00015 | 0.00158 ± 0.00032 | 0.00325 ± 0.00065 | 0.00643 ± 0.0013 | 0.0122 ± 0.0024 | 0.0224 ± 0.0045 | vapor or sublimation pressure ([2]; 500 K): 0.0398 ± 0.008 kPa; vapor or sublimation pressure ([2]; 510 K): 0.0684 ± 0.014 kPa; vapor or sublimation pressure ([2]; 520 K): 0.114 ± 0.023 kPa; vapor or sublimation pressure ([2]; 530 K): 0.185 ± 0.037 kPa; vapor or sublimation pressure ([2]; 540 K): 0.294 ± 0.059 kPa; vapor or sublimation pressure ([2]; 550 K): 0.454 ± 0.091 kPa; vapor or sublimation pressure ([2]; 560 K): 0.687 ± 0.14 kPa; vapor or sublimation pressure ([2]; 570 K): 1.02 ± 0.2 kPa; vapor or sublimation pressure ([2]; 580 K): 1.48 ± 0.3 kPa; molar enthalpy [3]: 38.8 ± 2.01 kcal/mol
CCCCCCCCCCCCCCCCCCCCCCCCCCCCCCC [hentriacontane] | 1.11e-11 ± 2.2e-12 | 1.23e-10 ± 2.5e-11 | 7.88e-10 ± 1.6e-10 | 4.39e-09 ± 8.8e-10 | 2.15e-08 ± 4.3e-09 | 9.39e-08 ± 1.9e-08 | 3.69e-07 ± 7.4e-08 | 1.32e-06 ± 2.6e-07 | 4.3e-06 ± 8.6e-07 | 1.3e-05 ± 2.6e-06 | 3.64e-05 ± 7.3e-06 | 9.56e-05 ± 1.9e-05 | 0.000236 ± 4.7e-05 | 0.00055 ± 0.00011 | 0.00122 ± 0.00024 | 0.00256 ± 0.00051 | 0.00517 ± 0.001 | 0.01 ± 0.002 | 0.0187 ± 0.0037 | 0.0336 ± 0.0067 | vapor or sublimation pressure ([2]; 500 K): 0.0585 ± 0.012 kPa; vapor or sublimation pressure ([2]; 510 K): 0.0989 ± 0.02 kPa; vapor or sublimation pressure ([2]; 520 K): 0.163 ± 0.033 kPa; vapor or sublimation pressure ([2]; 530 K): 0.26 ± 0.052 kPa; vapor or sublimation pressure ([2]; 540 K): 0.406 ± 0.081 kPa; vapor or sublimation pressure ([2]; 550 K): 0.619 ± 0.12 kPa; vapor or sublimation pressure ([2]; 560 K): 0.925 ± 0.18 kPa; vapor or sublimation pressure ([2]; 570 K): 1.35 ± 0.27 kPa; vapor or sublimation pressure ([2]; 580 K): 1.95 ± 0.39 kPa; molar enthalpy [3]: 37.6 ± 1.96 kcal/mol
CCCCCCCCCCCCCCCCCCCCCCCCCCCCCCCCCCCCC [heptatriacontane] | 1.49e-14 ± 4.5e-15 | 2.63e-13 ± 7.9e-14 | 2.43e-12 ± 7.3e-13 | 1.89e-11 ± 5.7e-12 | 1.26e-10 ± 3.8e-11 | 7.35e-10 ± 2.2e-10 | 3.77e-09 ± 1.1e-09 | 1.72e-08 ± 5.2e-09 | 7.09e-08 ± 2.1e-08 | 2.65e-07 ± 8e-08 | 9.09e-07 ± 2.7e-07 | 2.87e-06 ± 8.6e-07 | 8.43e-06 ± 2.5e-06 | 2.31e-05 ± 6.9e-06 | 5.96e-05 ± 1.8e-05 | 0.000145 ± 4.4e-05 | 0.000335 ± 0.0001 | 0.000735 ± 0.00022 | 0.00154 ± 0.00046 | 0.0031 ± 0.00093 | vapor or sublimation pressure ([2]; 500 K): 0.006 ± 0.0018 kPa; vapor or sublimation pressure ([2]; 510 K): 0.0112 ± 0.0034 kPa; vapor or sublimation pressure ([2]; 520 K): 0.0202 ± 0.0061 kPa; vapor or sublimation pressure ([2]; 530 K): 0.0353 ± 0.011 kPa; vapor or sublimation pressure ([2]; 540 K): 0.0598 ± 0.018 kPa; vapor or sublimation pressure ([2]; 550 K): 0.0987 ± 0.03 kPa; vapor or sublimation pressure ([2]; 560 K): 0.159 ± 0.048 kPa; vapor or sublimation pressure ([2]; 570 K): 0.25 ± 0.075 kPa; vapor or sublimation pressure ([2]; 580 K): 0.383 ± 0.12 kPa; molar enthalpy [3]: 44.8 ± 2.29 kcal/mol
CCCCCCCCCCCCCCCCCCCCCCCCCCCCCCCCCCCC [hexatriacontane] | 4.51e-14 ± 1.4e-14 | 7.39e-13 ± 2.2e-13 | 6.41e-12 ± 1.9e-12 | 4.72e-11 ± 1.4e-11 | 3e-10 ± 9e-11 | 1.66e-09 ± 5e-10 | 8.16e-09 ± 2.5e-09 | 3.58e-08 ± 1.1e-08 | 1.42e-07 ± 4.3e-08 | 5.12e-07 ± 1.5e-07 | 1.7e-06 ± 5.1e-07 | 5.2e-06 ± 1.6e-06 | 1.48e-05 ± 4.4e-06 | 3.96e-05 ± 1.2e-05 | 9.96e-05 ± 3e-05 | 0.000237 ± 7.1e-05 | 0.000534 ± 0.00016 | 0.00115 ± 0.00035 | 0.00236 ± 0.00071 | 0.00467 ± 0.0014 | vapor or sublimation pressure ([2]; 500 K): 0.00888 ± 0.0027 kPa; vapor or sublimation pressure ([2]; 510 K): 0.0163 ± 0.0049 kPa; vapor or sublimation pressure ([2]; 520 K): 0.0289 ± 0.0087 kPa; vapor or sublimation pressure ([2]; 530 K): 0.0498 ± 0.015 kPa; vapor or sublimation pressure ([2]; 540 K): 0.0834 ± 0.025 kPa; vapor or sublimation pressure ([2]; 550 K): 0.136 ± 0.041 kPa; vapor or sublimation pressure ([2]; 560 K): 0.216 ± 0.065 kPa; vapor or sublimation pressure ([2]; 570 K): 0.336 ± 0.1 kPa; vapor or sublimation pressure ([2]; 580 K): 0.51 ± 0.15 kPa; molar enthalpy [3]: 43.7 ± 2.25 kcal/mol
